Results reported in PubChem BioAssay AID651884 (Southern Research Specialized Biocontainment Screening …, 2012).

Tested on: VEEV TC-83 infected cells, viral CPE inhibition
Experiment: Cell based counter screen, viral CPE inhibition, VEEV strain KU V3526 (AID 651884)

## COc1ccc(NC(=O)c2cc([N+](=O)[O-])ccc2N=C2CN(C)CCN2C)cc1
  IC50: 17 nM

## CCN1CCN(Cc2nc3ccc([N+](=O)[O-])cc3c(=O)n2-c2ccccc2F)CC1
  IC50: 325 nM

## CCN1CCN(C)CC1=Nc1ccc([N+](=O)[O-])cc1C(=O)Nc1ccccc1
  IC50: 20 nM

## CN1CCN(C)C(=Nc2ccc([N+](=O)[O-])cc2C(=O)Nc2ccccc2)C1
  IC50: 19.4 nM
